Experimental data taken from patent US20240398771A1, “TREATMENT OF SCLERODERMA AND RAYNAUD'S SYNDROME” (Aisa Pharma, Inc., priority 2023, published 2024).

Legend:
[1] = system: participants with SSc-RP; assay: Frequency of weekly RP attacks, all attacks (patient diary; primary endpoint); format: in vivo, human; conditions: for Weekly RP Attacks (All Attacks), Max / Weekly RP Attacks (All Attacks), Min / Weekly RP Attacks (All Attacks), Q1 / Weekly RP Attacks (All Attacks), Q3: last 7 days of dosing period
Method: Part A—Double-blind, Placebo-controlled, Parallel-group, Dose selection, will assess the safety and efficacy of two doses of cilnidipine (10 mg and 20 mg), alone and in combination with tadalafil. A total of 36 participants will be randomized to one of six pre-specified treatment arms. See Example 3 for data obtained in this phase of the study thus far, on 11 participants.
Please refer to FIG. 1 for treatment arms in Part A of the study. Dosing lasted or will last for 12 (±2) days in which participants self-administered or will self-administer daily doses of assigned treatment in the morning. Each participant took or will take one capsule and one tablet to blind the active therapy being received.
(§1) The relevant metrics measured by this tool daily are: • Study medication • SSc-RP symptoms (Reporting an attack including duration of attack) • Severity of the attack considering all symptoms of the attack e.g. tingling, numbness, pain, color changes (VAS 0-10 cm scale) • Participant's location at the time of the attack (inside home/outside home) • Selecting symptoms experienced during the attack (tingling, numbness, pain, color changes, other) • Pain rating during the attack (11-point Likert scale) • The RCS based on how much difficulty participants had with Raynaud's today, how many attacks the participant had, and how long they lasted. Participants will also be asked to consider how much pain, numbness, or other symptoms the Raynaud's caused in fingers (including painful sores), and how much the Raynaud's alone affected the use of hands today (VAS 0-10 cm scale).
Percent change from baseline evaluation for frequency of weekly RP attacks were or will be used as the primary efficacy variable. The sponsor-developed participant-informed diary will be used to record data. Frequency of weekly RP attacks is defined as the total number of RP attacks divided by the number of days with available diary data within the last 7 days of each dosing period then multiplied by 7. Total number of RP attacks during the last 7 days of screening period divided by the number of days with available data then multiplied by 7 will be used as baseline for the analysis of all periods.
Percentage change={(weekly RP attacks for the last 7 days of each dosing period−Baseline weekly RP attacks)/Baseline weekly RP attacks}*100%.
Absolute change=weekly RP attacks for the last 7 days of each dosing period−Baseline weekly RP attacks
Percent change from baseline evaluation for frequency of weekly RP attacks was and will be the primary efficacy endpoint. Frequency of weekly RP attacks is defined as the total number of RP attacks divided by the number of days with available diary data within the last 7 days of each dosing period then multiplied by 7. Total number of RP attacks during the last 7 days of screening period divided by the number of days with available data then multiplied by 7 will be used as baseline for the analysis of all periods.
The following data was actually obtained in accordance with the protocol and plan delineated in Examples 1 and 2. The accompanying data involved 11 patients out of the planned 76 patient study. The study was done in patients with scleroderma (systemic sclerosis) who had relatively frequent Raynaud symptoms as they needed to average at least one attack per day during a screening period of up to two weeks. In this first phase of this double-blind placebo-controlled, prospective randomized study, patients were treated in parallel and after meeting study criteria were randomized to receive either placebo, cilnidipine 10 mg daily, cilnidipine 20 mg daily, tadalafil 5 mg daily, cilnidipine 10 mg plus 5 mg of tadalafil, or cilnidipine 20 mg plus 5 mg of tadalafil.
Results: Patients in the study were administered the Scleroderma Health Assessment Questionnaire (SHAQ) at the time of study entry and during clinic visits following the treatment period. […]

[2] = system: participants with SSc-RP; assay: Average severity (0-10) of weekly RP attacks, all attacks; format: in vivo, human; conditions: excluding outliers, ITT Part A
Excerpt: as §1
The absolute change in average severity of weekly RP attacks (VAS 0-10 cm scale) from baseline to the end of each Dosing Period was and will be a secondary outcome variable. The sponsor-developed participant-informed diary will be used to record data. Average severity of weekly RP attacks is defined as the total severity scores of RP attacks divided by total number of RP attacks within the last 7 days of each dosing period. Total severity scores of RP attacks during the last 7 days of screening period divided by the total number of RP attacks will be used as baseline for the analysis of all periods. The variable will be calculated similar to frequency data as before.

[3] = Table A-5, ITT Part A, listed as Cilnidipine 10 mg
[4] = Table A-5, ITT Part A, listed as Cilnidipine 20 mg
[5] = Table A-5, ITT Part A, listed as Pooled Cilnidipine
[6] = Table A-5, ITT Part A, last 7 days of dosing vs last 7 days of screening
[7] = Table A-5, ITT Part A, last 7 days of dosing vs last 7 days of screening, listed as Cilnidipine 10 mg
[8] = Table A-5, ITT Part A, last 7 days of dosing vs last 7 days of screening, listed as Cilnidipine 20 mg
[9] = Cilnidipine 10 mg, baseline RCS subgroup 1 of 2
[10] = Cilnidipine 20 mg, baseline RCS subgroup 1 of 2
[11] = Pooled Cilnidipine 10 mg and Cilnidipine 10 mg + Tadalafil 5 mg, baseline RCS subgroup 1 of 2
[12] = Pooled Cilnidipine 10 mg and Cilnidipine 10 mg + Tadalafil 5 mg, baseline RCS subgroup 2 of 2
[13] = Pooled Cilnidipine 20 mg and Cilnidipine 20 mg + Tadalafil 5 mg, baseline RCS subgroup 1 of 2
[14] = Pooled Cilnidipine 20 mg and Cilnidipine 20 mg + Tadalafil 5 mg, baseline RCS subgroup 2 of 2
[15] = Pooled Cilnidipine, baseline RCS subgroup 1 of 2
[16] = Tadalafil 5 mg, baseline RCS subgroup 2 of 2

COCCOC(=O)C1=C(C)NC(C)=C(C(=O)OC/C=C/c2ccccc2)C1c1cccc([N+](=O)[O-])c1 (stereo not drawn) [Cilnidipine, 1,4-dihydro-2,6-dimethyl,4-(3-nitrophenyl)-3,5-pyridinedicarboxylic acid 2-methoxyethyl (2 E)-3-phenyl-2-propenyl ester]
Efficacy Seen: overall response ([1]; 20 mg dose group): shows best overall
effect on Raynaud's endpoints (DSMB review) ([1]; Example 4, Part A, both doses (10 and 20 mg)): effective at reducing Raynaud's endpoints
Weekly RP Attacks (All Attacks) Percent Change from Baseline, Median ([1]; Pooled Cilnidipine 20 mg and Cilnidipine 20 mg + Tadalafil 5 mg, excluding outliers, baseline RCS subgroup not named, upper half of table, ITT Part A): −45.00%
Weekly RP Attacks (All Attacks), Median ([1]; Pooled Cilnidipine, excluding outliers, baseline RCS subgroup not named, upper half of table, ITT Part A): 11.00
Weekly RP Attacks (All Attacks), Max [1, 3]: 23.0
Weekly RP Attacks (All Attacks), Min [1, 3]: 23.0,
Weekly RP Attacks (All Attacks), Q1 [1, 3]: 23.00,
Weekly RP Attacks (All Attacks), Q3 [1, 3]: 23.00
Weekly RP Attacks (All Attacks), Max [1, 4]: 11.0
Weekly RP Attacks (All Attacks), Min [1, 4]: 5.0,
Weekly RP Attacks (All Attacks), Q1 [1, 4]: 5.00,
Weekly RP Attacks (All Attacks), Q3 [1, 4]: 11.00
Weekly RP Attacks (All Attacks), Max [1, 5]: 23.0
Weekly RP Attacks (All Attacks), Min [1, 5]: 5.0,
Weekly RP Attacks (All Attacks), Q1 [1, 5]: 5.00,
Weekly RP Attacks (All Attacks), Q3 [1, 5]: 23.00
Weekly RP Attacks (All Attacks) Change from Baseline, Min [1, 6]: −9.0,
Weekly RP Attacks (All Attacks) Change from Baseline, Q1 [1, 6]: −9.00,
Weekly RP Attacks (All Attacks) Change from Baseline, Max [1, 7]: −9.0
Weekly RP Attacks (All Attacks) Change from Baseline, Q3 [1, 7]: −9.00
Weekly RP Attacks (All Attacks) Change from Baseline, Max [1, 8]: −4.3
Weekly RP Attacks (All Attacks) Percent Change from Baseline, Max [1, 8]: −45.0%
Weekly RP Attacks (All Attacks) Percent Change from Baseline, Q3 [1, 8]: −45.00%
Weekly RP Attacks (All Attacks) Change from Baseline, Max ([1]; Table A-5, ITT Part A, last 7 days of dosing vs last 7 days of screening, listed as Pooled Cilnidipine): −4.3
Average Severity of Weekly RP Attacks (All Attacks): Baseline, Mean [2, 9]: 3.03
Average Severity of Weekly RP Attacks (All Attacks): Baseline, Median [2, 9]: 3.03
Average Severity of Weekly RP Attacks (All Attacks): Average Severity, Mean [2, 10]: 2.30
Average Severity of Weekly RP Attacks (All Attacks): Average Severity, Median [2, 10]: 2.30
Average Severity of Weekly RP Attacks (All Attacks): Baseline, Mean [2, 10]: 3.37
Average Severity of Weekly RP Attacks (All Attacks): Baseline, Median [2, 10]: 3.37
Average Severity of Weekly RP Attacks (All Attacks): Average Severity, Mean [2, 11]: 2.97
Average Severity of Weekly RP Attacks (All Attacks): Average Severity, Median [2, 11]: 2.97
Average Severity of Weekly RP Attacks (All Attacks): Baseline, Mean [2, 11]: 4.33
Average Severity of Weekly RP Attacks (All Attacks): Baseline, Median [2, 11]: 4.33
Average Severity of Weekly RP Attacks (All Attacks): Average Severity, Mean [2, 12]: 4.90
Average Severity of Weekly RP Attacks (All Attacks): Average Severity, Median [2, 12]: 4.90
Average Severity of Weekly RP Attacks (All Attacks): Baseline, Mean [2, 12]: 6.22
Average Severity of Weekly RP Attacks (All Attacks): Baseline, Median [2, 12]: 6.22
Average Severity of Weekly RP Attacks (All Attacks): Average Severity, Mean [2, 13]: 2.78
Average Severity of Weekly RP Attacks (All Attacks): Average Severity, Median [2, 13]: 2.40
Average Severity of Weekly RP Attacks (All Attacks): Baseline, Median [2, 13]: 4.12
Average Severity of Weekly RP Attacks (All Attacks): Baseline, Mean [2, 14]: 6.59
Average Severity of Weekly RP Attacks (All Attacks): Baseline, Median [2, 14]: 6.59
Average Severity of Weekly RP Attacks (All Attacks): Average Severity, Median [2, 15]: 2.40
Average Severity of Weekly RP Attacks (All Attacks): Baseline, Mean [2, 15]: 3.26
Average Severity of Weekly RP Attacks (All Attacks): Baseline, Median [2, 15]: 3.03

CN1CC(=O)N2[C@H](c3ccc4c(c3)OCO4)c3[nH]c4ccccc4c3C[C@@H]2C1=O [Tadalafil]
Weekly RP Attacks (All Attacks), Max ([1]; Table A-5, ITT Part A): 19.0
Weekly RP Attacks (All Attacks), Min ([1]; Table A-5, ITT Part A): 7.0,
Weekly RP Attacks (All Attacks), Q1 ([1]; Table A-5, ITT Part A): 7.00,
Weekly RP Attacks (All Attacks), Q3 ([1]; Table A-5, ITT Part A): 19.00
Weekly RP Attacks (All Attacks) Change from Baseline, Max [1, 6]: 6.0
Weekly RP Attacks (All Attacks) Change from Baseline, Min [1, 6]: 0.0,
Weekly RP Attacks (All Attacks) Change from Baseline, Q1 [1, 6]: 0.00,
Weekly RP Attacks (All Attacks) Change from Baseline, Q3 [1, 6]: 6.00
Weekly RP Attacks (All Attacks) Percent Change from Baseline, Min [1, 6]: 0.0, %
Weekly RP Attacks (All Attacks) Percent Change from Baseline, Q1 [1, 6]: 0.00, %
Average Severity of Weekly RP Attacks (All Attacks): Average Severity, Mean [2, 16]: 4.56
Average Severity of Weekly RP Attacks (All Attacks): Average Severity, Median [2, 16]: 4.56
Average Severity of Weekly RP Attacks (All Attacks): Baseline, Mean [2, 16]: 5.75
Average Severity of Weekly RP Attacks (All Attacks): Baseline, Median [2, 16]: 5.75
